This is an account of results in patent publication US11161860B2, “Compound having effects of inhibiting phosphodiesterase 4, preparation method thereof and pharmaceutical use thereof” (Hefei Industrial Pharmaceutical Institute Co., Ltd., priority 2018, dated 2021).

Marks after values point to notes of the source that are not given here.

One experiment has as its target T1, PDE4A enzyme (Homo sapiens, UniProt P27815).
T1 construct: GST (N); host or cells: Sf9 insect cells (baculovirus)
Description: Inhibition of the activity of PDE4A enzyme (fluorescence polarization, Transcreener AMP2/GMP2). The experiment is classed as biochemical. Conditions: 1 h, mean ± spread; for remaining activity at 0.01 µM: 0.01 μM compound; for remaining activity at 0.1 µM: 0.1 μM compound; for remaining activity at 1 µM: 1 μM compound. The method, then: The PDE4A enzyme expressed from baculovirus is labeled with N-terminal GST from Sf9 insect cells. A specified PDE4A enzyme and 1 mM cAMP are added to the newly prepared pH 7.5 Tris buffer, the enzyme solution is transferred into reaction wells, and the compound is sonicated in DMSO and then added to the enzyme solution for culturing for 10 minutes at room temperature; the substrate solution is poured into the reaction wells to initiate the reaction and cultured at room temperature for 1 hour, and a detection tracer (AMP2/GMP2 AlexaFluor 633 Tracer) and an antibody (Transcreener® AMP2/GMP2 Antibody) are added to stop the reaction for culturing for 90 minutes with gentle mixing. […]
Background: Fluorescence polarisation rises when a labelled molecule tumbles more slowly, as on binding a larger partner.

Experiment [1] relates to DNCB-induced atopic dermatitis mice. Description: DNCB-induced dermatitis mouse model, skin thickness. The format is in vivo, female BALB/C mice. The settings on record: for reduction of the thickness of the dermis compared with Crisaborole / reduction of the thickness of the epidermis compared with Crisaborole: 50 mg/mL topical, statistical comparison vs Crisaborole group; for Epidermal thickness / Dermis thickness: 50 mg/mL, 100 μL applied to back skin, 11 times once a day, Mean ± SD, n = 8; for Epidermal thickness: model 137.76, blank 48.93; for Dermis thickness: model 500.71, blank 194.70. The method, then:
After female BALB/C mice are selected, each weighing 18-22 g, for animal adaptive breeding for 7 days, these are randomly divided into a blank group, a model group, a positive drug Crisaborole group, a hexadecadrol group, and compound groups, with 8 in each group. Except for the mice in the blank group, the remaining mice are applied with 100 μL of a 1% DNCB solution [acetone: olive oil=4:1 (V/V)] on the skin of the back of the shaved mice, and applied continuously for 3 days once a day. Then, dosing treatment starts 4 days after the mice are housed, and the test drug is applied to the back of each group of animals, wherein animals in the blank group and the model group are applied with a corresponding solvent, the positive drug Crisaborole group and hexadecadrol group are applied with 50 mg/mL of a corresponding drug, and the administration group is applied with 50 mg/mL of a corresponding compound, with 100 μL for each mouse; after application of 4 hours, 0.5% DNCB solution is applied for secondary challenge, and repeated administration and challenge treatment are performed 11 times, once a day. 24 hours after the last administration, the animals are sacrificed, and the back skins (1×0.4 cm^2) are taken and fixed in 10% formalin buffer to make pathological sections and perform HE staining; then, the epidermal and dermal layers are observed under a 100× […], and 5 areas are selected for detection of and recording the skin thickness, and then the average value is taken to represent the final thicknesses of the epidermal layer and dermal layer, respectively.

T1 sequence (P27815 whole entry, species assumed): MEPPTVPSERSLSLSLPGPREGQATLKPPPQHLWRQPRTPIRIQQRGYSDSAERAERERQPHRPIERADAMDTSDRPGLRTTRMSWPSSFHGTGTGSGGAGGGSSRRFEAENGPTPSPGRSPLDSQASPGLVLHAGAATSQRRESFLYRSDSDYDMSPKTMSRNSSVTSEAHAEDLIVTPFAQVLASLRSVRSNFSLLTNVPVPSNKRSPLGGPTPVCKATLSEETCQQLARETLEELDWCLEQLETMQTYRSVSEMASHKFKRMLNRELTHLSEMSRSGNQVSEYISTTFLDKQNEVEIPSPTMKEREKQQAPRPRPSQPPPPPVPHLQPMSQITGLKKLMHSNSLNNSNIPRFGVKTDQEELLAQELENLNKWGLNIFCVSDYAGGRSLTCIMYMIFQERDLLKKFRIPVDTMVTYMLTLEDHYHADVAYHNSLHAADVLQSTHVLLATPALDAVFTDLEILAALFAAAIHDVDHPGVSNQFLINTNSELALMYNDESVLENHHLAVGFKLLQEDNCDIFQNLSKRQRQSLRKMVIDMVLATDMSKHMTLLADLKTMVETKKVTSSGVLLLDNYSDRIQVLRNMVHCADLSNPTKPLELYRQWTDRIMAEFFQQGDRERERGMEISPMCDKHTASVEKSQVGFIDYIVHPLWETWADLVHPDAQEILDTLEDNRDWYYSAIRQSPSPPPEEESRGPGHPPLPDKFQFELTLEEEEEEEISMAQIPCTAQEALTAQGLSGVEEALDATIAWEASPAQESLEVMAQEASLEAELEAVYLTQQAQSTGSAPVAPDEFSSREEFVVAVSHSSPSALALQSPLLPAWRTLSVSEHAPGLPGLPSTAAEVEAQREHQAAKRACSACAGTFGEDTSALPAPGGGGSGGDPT

As for `N#Cc1ccc2cc(Oc3ccc4c(c3)COB4O)ccc2c1` [PD-25], at PDE4A enzyme, the remaining activity (as a rule, the activity still measured, relative to the control) at 0.01 µM came out at 7.17 ± 0.64%; the remaining activity at 0.1 µM was 1.95 ± 1.18%; the remaining activity at 1 µM was 2.27 ± 0.74%. Also, in experiment [1], the “reduction of the thickness of the dermis compared with Crisaborole” value is “significantly reduce the thickness of the dermis of dermatitis mice (P≤0.05)”, the “reduction of the thickness of the epidermis compared with Crisaborole” value was “significantly reduce the thickness of the epidermis of the dermatitis mice (P≤0.05)”, the Epidermal thickness was 87.77 ± 10.58 μm and the Dermis thickness turned out to be 412.42 ± 26.74 μm.
On PDE4A enzyme, `N#Cc1ccc2nc(Cl)cc(Oc3ccc4c(c3)COB4O)c2c1` [PD-26] returned a remaining activity at 0.01 µM of 12.8 ± 1.82%, a remaining activity at 0.1 µM of 7.23 ± 1.83% and a remaining activity at 1 µM of 2.04 ± 0.24%. Moreover, in experiment [1], the “reduction of the thickness of the dermis compared with Crisaborole” value was “significantly reduce the thickness of the dermis of dermatitis mice (P≤0.01)”, the “reduction of the thickness of the epidermis compared with Crisaborole” value is on record as “significantly reduce the thickness of the epidermis of the dermatitis mice (P≤0.05)”, the Epidermal thickness came out at 83.94 ± 7.63 μm and the Dermis thickness was found to be 408.97 ± 23.06 μm.
Regarding `COC(=O)c1ccc2nc(Cl)cc(Oc3ccc4c(c3)COB4O)c2c1` [PD-27], on PDE4A enzyme, the remaining activity at 0.01 µM was determined as 12.9 ± 1.86%, the remaining activity at 0.1 µM is 9.49 ± 1.59% and the remaining activity at 1 µM is 2.69 ± 1.77%. In experiment [1], this compound showed an Epidermal thickness of 97.73 ± 8.95 μm and a Dermis thickness of 430.05 ± 27.90 μm.
With `OB1OCc2cc(Oc3cc(Cl)nc4ccc(C(F)(F)F)cc34)ccc21` [PD-28], on PDE4A enzyme, the remaining activity at 0.01 µM was 9.14 ± 0.89%, the remaining activity at 0.1 µM came out at 4.42 ± 0.64% and the remaining activity at 1 µM came to 2.1 ± 0.93%. Moreover, in experiment [1], the Epidermal thickness was 70.51 ± 12.45 μm and the Dermis thickness is given as 352.69 ± 30.77**^aa μm.
